Values after ≈ are worked out from the molar mass of the structure shown.
Experiments:
Colon 26 cells = test: Antitumor effect in Colon 26-bearing mice; type: in vivo, CDF1 female mice; conditions: for Antitumor activity Colon-26 TGI % (tumor growth inhibition rate): Colon 26-bearing CDF1 mice, single dose via tail vein, tumor weighed one week after; for Chemotherapy index MTD/TGI50: ratio of maximum tolerant dose (mg/kg) to dose giving 50% tumor growth inhibition (mg/kg), colon26-bearing mice
Description: Antitumor effect in Colon 26-bearing mice:
Colon 26 cells 1×10^6 were transplanted into an axillary region of 8-week old CDF1 female mice (Japan SLC Inc., Hamamatsu) subcutaneously. Six days after the transplantation, when the tumor grew palpable, the compound was administered via the tail vein. One week after the administration, the tumor was removed and weighed. The antitumor activity was represented by tumor growth inhibition rate (TGI %=(1--T/C)×100) derived from the ratio (T/C) of the average tumor weight (T) of the compound-administered group to the average tumor weight (C) of the control group.

HeLa S3 cells = test: HeLa Cell Growth Inhibition Activity (HeLa S3, MTT); type: cell-based; conditions: Homo sapiens, 72 hours exposure
Description: HeLa Cell Growth Inhibition Activity:
HeLa S3 cells were maintained as a monolayer culture in Eagle's minimal medium (Nissui Seiyaku K. K., Tokyo) containing […] glutamine, 100 μg/mL of kanamycin sulfate, and 10% inactivated fetal calt serum at 37° C. in a carbon dioxide incubator. The cells 1.8×10^3 were inoculated to a 96-well plate, and were exposed to the test compounds from the next day for 72 hours. Then, the viable cell numbers were measured by evaluating the ability to reduce 3-[4,5-dimethylthiazol-2-yl]-2,5-diphenyltetrazolium bromide (MTT) according to the Mosmann's method (Mosmann,T., J. Imunol. Meth., 65, 55-63, 1983).

COC(=O)c1c(C(F)(F)F)[nH]c2c(O)cc3c(c12)[C@H](CCl)CN3C(=O)/C=C/c1ccc(/C=C/C(=O)N2C[C@@H](CCl)c3c2cc(O)c2[nH]c(C(F)(F)F)c(C(=O)OC)c32)cc1 [Example 1, (S,S)-3,3'-[3,3'-(1,4-phenylenediacryloyl)]-bis[1-chloromethyl-5-hydroxy-7-trifluoromethyl-1,2,3,6-tetrahydropyrrolo[3,2-e]indole-8-methoxycarbonyl]]
Antitumor activity Colon-26 TGI % (tumor growth inhibition rate) (Colon 26 cells; 7.81 μg/kg): 92% | Chemotherapy index MTD/TGI50 (Colon 26 cells): 21.9 | IC50 (HeLa S3 cells): 0.0031 ng/mL (≈ 0.00352 nM)

COC(=O)c1c(C(F)(F)F)[nH]c2c(O)cc3c(c12)[C@H](CCl)CN3C(=O)/C=C/c1ccc(-c2ccc(/C=C/C(=O)N3C[C@@H](CCl)c4c3cc(O)c3[nH]c(C(F)(F)F)c(C(=O)OC)c43)cn2)nc1 [Example 13, (S,S)-3,3'-[3,3'-(2,2'-bipyridyl-5,5'-diyl)diacryloyl]-bis[1-chloromethyl-5-hydroxy-7-trifluoromethyl-1,2,3,6-tetrahydropyrrolo [3,2-e]indole-8-methoxycarbonyl]]
Antitumor activity Colon-26 TGI % (tumor growth inhibition rate) (Colon 26 cells; 3.91 μg/kg): 88% | Chemotherapy index MTD/TGI50 (Colon 26 cells): 3.6 | IC50 (HeLa S3 cells): 0.0198 ng/mL (≈ 0.0207 nM)

COC(=O)c1c(C(F)(F)F)[nH]c2c(O)cc3c(c12)[C@H](CCl)CN3C(=O)/C=C/c1ccc(/C=C/C(=O)N2C[C@@H](CCl)c3c2cc(O)c2[nH]c(C(F)(F)F)c(C(=O)OC)c32)c2c(OC)ccc(OC)c12 [Example 3, (S,S)-3,3'-[3,3'-(5,8-dimethoxy-1,4-naphthalenediyl)diacryloyl]-bis[1-chloromethyl-5-hydroxy-7-trifluoromethyl-1,2,3,6-tetrahydropyrrolo [3,2-e]indole-8-methoxycarbonyl]]
IC50 (HeLa S3 cells): 0.00934 ng/mL (≈ 0.00944 nM)

Cc1c[nH]c2c(O)cc3c(c12)[C@H](CCl)CN3C(=O)/C=C/c1ccc(/C=C/C(=O)N2C[C@@H](CCl)c3c2cc(O)c2[nH]cc(C)c32)cc1 [Example 19, (S,S)-3,3'-[3,3'-(1,4-phenylene)diacryloy]-bis[1-chloromethyl-5-hydroxy-8-methyl-1,2,3,6-tetrahydropyrrolo[3,2-e]indole]]
IC50 (HeLa S3 cells): 0.0134 ng/mL (≈ 0.0204 nM)

COC(=O)c1cc2c3c(cc(O)c2[nH]1)N(C(=O)/C=C/c1ccc(/C=C/C(=O)N2C[C@@H](CCl)c4c2cc(O)c2[nH]c(C(=O)OC)cc42)cc1)C[C@H]3CCl [Example 22, (S,S)-3,3'-[3,3 '-(1,4-phenylene)diacryloy]-bis[1-chloromethyl-5-hydroxy-1,2,3,6-tetrahydropyrrolo[3,2-e]indole-7-methoxycarbonyl]]
IC50 (HeLa S3 cells): 0.0227 ng/mL (≈ 0.0305 nM)

COC(=O)c1c[nH]c2c(O)cc3c(c12)[C@H](CCl)CN3C(=O)/C=C/c1ccc(/C=C/C(=O)N2C[C@@H](CCl)c3c2cc(O)c2[nH]cc(C(=O)OC)c32)cc1 [Example 21, (S,S)-3,3'-[3,3'-(1,4-phenylene)diacryloy]-bis[1-chloromethyl-5-hydroxy-1,2,3,6-tetrahydropyrrolo[3,2-e]indole-8-methoxycarbonyl]]
IC50 (HeLa S3 cells): 0.00035 ng/mL (≈ 0.000471 nM)

COC(=O)c1c(C(F)(F)F)[nH]c2c(O)cc3c(c12)[C@H](CCl)CN3C(=O)/C=C/c1ccc(/C=C/C(=O)N2C[C@@H](CCl)c3c2cc(O)c2[nH]c(C(F)(F)F)c(C(=O)OC)c32)c2ccccc12 [Example 10, (S,S)-3,3'-[3,3'-(1,4-naphthalenediyl)diacryloyl]-bis[1-chloromethyl-5-hydroxy-7-trifluoromethyl-1,2,3,6-tetrahydropyrrolo[3,2-e]indole-8-methoxycarbonyl]]
Antitumor activity Colon-26 TGI % (tumor growth inhibition rate) (Colon 26 cells; 0.977 μg/kg): 85% | Chemotherapy index MTD/TGI50 (Colon 26 cells): 7.4 | IC50 (HeLa S3 cells): 0.011 ng/mL (≈ 0.0118 nM)

COC(=O)c1c(C(F)(F)F)[nH]c2c(O)cc3c(c12)[C@H](CCl)CN3C(=O)/C=C/c1ccc(/C=C/C(=O)N2C[C@@H](CCl)c3c2cc(O)c2[nH]c(C(F)(F)F)c(C(=O)OC)c32)c(OC)c1OC [Example 8, (S,S)-3,3'-[3,3 '-(2,3-dimethoxy-1,4-phenylene)diacryloyl]-bis[1-chloromethy 1-5-hydroxy-7-trifluoromethyl-1,2,3,6-tetrahydropyrrolo[3,2-e]indole-8-methoxycarbonyl]]
Antitumor activity Colon-26 TGI % (tumor growth inhibition rate) (Colon 26 cells; 0.977 μg/kg): 89% | Chemotherapy index MTD/TGI50 (Colon 26 cells): 4.6 | IC50 (HeLa S3 cells): 0.00158 ng/mL (≈ 0.00168 nM)

COC(=O)c1c(C)[nH]c2c(O)cc3c(c12)[C@H](CCl)CN3C(=O)/C=C/c1ccc(/C=C/C(=O)N2C[C@@H](CCl)c3c2cc(O)c2[nH]c(C)c(C(=O)OC)c32)cc1 [Example 18, (S,S)-3,3'-[3,3'-(1,4-phenylene)diacryloyl]-bis[1-chloromethyl-5-hydroxy-7-methyl-1,2,3,6-tetrahydropyrrolo [3,2-e]indole-8-methoxycarbonyl]]
IC50 (HeLa S3 cells): 0.000459 ng/mL (≈ 0.000595 nM)

O=C(/C=C/c1ccc(/C=C/C(=O)N2C[C@@H](CCl)c3c2cc(O)c2[nH]c4ccccc4c32)cc1)N1C[C@@H](CCl)c2c1cc(O)c1[nH]c3ccccc3c21 [Example 20, (S,S)-3,3'-[3,3'-(1,4-phenylene)diacryloyl]-bis[1-chloromethyl-5-hydroxy-1,2-dihydropyrrolo[3,2-a]carbazole]]
IC50 (HeLa S3 cells): 0.0716 ng/mL (≈ 0.0984 nM)

COC(=O)c1c(C(F)(F)F)[nH]c2c(O)cc3c(c12)[C@H](CCl)CN3C(=O)/C=C/c1ccc(/C=C/C(=O)N2C[C@@H](CCl)c3c2cc(O)c2[nH]c(C(F)(F)F)c(C(=O)OC)c32)c2c1OCO2 [Example 5, (S,S)-3,3'-[3,3'-(2,3-(methylenedioxy)-1,4-phenylene)diacryloyl]-bis[1-chloromethyl-5-hydroxy-7-trifluoromethyl-1,2,3,6-tetrahydropyrrolo[3,2-e]indole-8-methoxycarbonyl]]
Antitumor activity Colon-26 TGI % (tumor growth inhibition rate) (Colon 26 cells; 1.95 μg/kg): 90% | IC50 (HeLa S3 cells): 0.00595 ng/mL (≈ 0.00644 nM)

CCc1c(/C=C/C(=O)N2C[C@@H](CCl)c3c2cc(O)c2[nH]c(C(F)(F)F)c(C(=O)OC)c32)ccc(/C=C/C(=O)N2C[C@@H](CCl)c3c2cc(O)c2[nH]c(C(F)(F)F)c(C(=O)OC)c32)c1CC [Example 6, (S,S)-3,3'-[3,3'-(2,3-diethyl-1,4-phenylene)diacryloyl]-bis[1-chloromethyl-5-hydroxy-7-trifluoromethyl-1,2,3,6-tetrahydropyrrolo[3,2-e]indole-8-methoxycarbonyl]]
IC50 (HeLa S3 cells): 0.0318 ng/mL (≈ 0.034 nM)

COC(=O)c1c(C(F)(F)F)[nH]c2c(O)cc3c(c12)[C@H](CCl)CN3C(=O)/C=C/c1ccc(/C=C/C(=O)N2C[C@@H](CCl)c3c2cc(O)c2[nH]c(C(F)(F)F)c(C(=O)OC)c32)c2c1OCCO2 [Example 4, (S,S)-3,3'-[3,3'-(2,3-(ethylenedioxy)-1,4-phenylene)diacryloyl]-bis[1-chloromethyl-5-hydroxy-7-trifluoromethyl-1,2,3,6-tetrahydropyrrolo [3,2-e]indole-8-methoxycarbonyl]]
Antitumor activity Colon-26 TGI % (tumor growth inhibition rate) (Colon 26 cells; 0.488 μg/kg): 91% | Chemotherapy index MTD/TGI50 (Colon 26 cells): 9 | IC50 (HeLa S3 cells): 0.00276 ng/mL (≈ 0.00294 nM)
